{
  "source": "paper PMC7395068",
  "about": "“The evolution of strategies to minimise the risk of human drug-induced liver injury (DILI) in drug discovery and development” (Archives of Toxicology, 2020)",
  "key": {"[1]": {"settings": "cited from earlier work"}, "[2]": {"settings": "cited from earlier work", "remark": "listed apart in the source"}, "HepG2 cells [3]": {"system": "HepG2 cells", "settings": "cited from earlier work"}, "PHH spheroids [4]": {"system": "PHH spheroids", "settings": "cited from earlier work"}, "PHH spheroids [5]": {"system": "PHH spheroids", "parameters": "method as in Bell et al. 2016", "settings": "48-h exposure; ref Bell et al. 2016; cited from earlier work"}, "HepG2 cells [6]": {"system": "HepG2 cells", "settings": "cited from earlier work", "remark": "listed apart in the source"}, "[7]": {"settings": "read-out: Human plasma Cmax; total plasma Cmax.tot, median of 9 literature references; cited from earlier work"}, "hLiMTs": {"system": "hLiMTs", "test": "Combined HCI (HCS) and cellular ATP 3D assay in hLiMTs"}, "[8]": {"test": "Plasma free fraction (fu) and unbound Cmax (Cmax,u)", "type": "in vitro ADME, human", "settings": "unbound plasma Cmax", "procedure": "The prediction of DILI severity was evaluated further using the 3D combined HCI assays using plasma-free fraction. The majority of fu values were obtained from literature, when unavailable in-house prediction was utilised. Unbound plasma Cmax concentrations (Cmax,u) were derived by multiplying total plasma Cmax with the corresponding free fraction (fu) for each compound."}, "[9]": {"settings": "plasma free fraction; cited from earlier work"}, "HepG2 cells [10]": {"system": "HepG2 cells", "settings": "cited from earlier work", "remark": "listed apart in the source"}, "[11]": {"system": "THLE-Null and THLE-3A4 cells", "settings": "In vitro Assay; ref Gustafsson 2014; cited from earlier work"}, "HepaRG spheroids": {"system": "HepaRG spheroids", "test": "Combined HCI (HCS) and cellular ATP 3D assay in HepaRG spheroids", "settings": "for AC50 / minimal effective concentration: Homo sapiens"}, "rBsep": {"system": "rBsep", "settings": "In vitro Assay; ref Dawson 2012; cited from earlier work"}, "[12]": {"settings": "phase I clinical trials; ref Manning and Swartz 1995; McKenzie et al. 1995; cited from earlier work"}, "PHH liver spheroid": {"system": "PHH liver spheroid", "parameters": "method as in Foster et al. 2019", "settings": "liver-chip of comparable sensitivity, ref Foster et al. 2019; cited from earlier work"}, "[13]": {"settings": "In vitro Assay, ref Persson 2013"}, "[14]": {"settings": "Microtissue model structural based (HCI), combined HCS and ATP, MEC < 25 × Cmax.tot cut-off"}},
  "note": "Like-named read-outs stand apart in the source and are kept apart here.",
  "data": [
    {"smiles": "O=c1[nH]c(=O)n([C@@H]2O[C@H](CO)[C@@H](O)[C@@H]2F)cc1I", "note": "[fialuridine]", "values": [
      {"measurement": "DILI severity category (Chen et al. [2016])", "setting": "[1]; LTKB DILIrank category, ref Chen et al. 2016", "value": "Most"},
      {"measurement": "DILI severity category (Chen 2016)", "setting": "[1]; human DILI classification, LTKB DILIrank, ref Chen et al. 2016", "value": "Most"},
      {"measurement": "DILI severity category", "setting": "[1]; human DILI severity, ref Chen et al.", "value": "Most"},
      {"measurement": "DILI +VE (5-8), DILI -VE (-4)", "setting": "[1]; ref Chen 2016", "value": "+VE"},
      {"measurement": "DILI severity category", "setting": "[1]; ref Chen 2016", "value": "vMost-DILI-Concern"},
      {"measurement": "Assigned DILI category", "setting": "[2]; Chen et al. 2016 or literature alignment, ref Chen et al. 2016", "value": 3},
      {"measurement": "In vivo DILI", "setting": "[2]; ref Dawson 2012", "value": "+VE"},
      {"measurement": "In vivo DILI", "setting": "[2]; ref Gustafsson 2014", "value": "+VE"},
      {"measurement": "In vivo DILI", "setting": "[2]; ref O'Brien 2006", "value": "+VE"},
      {"measurement": "In vivo DILI", "setting": "[2]; ref Persson 2013", "value": "+VE"},
      {"measurement": "In vivo DILI", "setting": "[2]; ref Tolosa 2012", "value": "+VE"},
      {"measurement": "In vivo DILI", "setting": "[2]; ref Vorrink 2018", "value": "+VE"},
      {"measurement": "Cluser analysis", "setting": "HepG2 cells [3]; [13]", "value": "-VE"},
      {"measurement": "Structural based (HCI)", "setting": "HepG2 cells [3]; [13]", "value": "+VE"},
      {"measurement": "DILI in vitro assay prediction, Persson (2013)", "setting": "HepG2 cells [3]; Structural based (HCI), HepG2, ref Persson et al. 2013", "value": "-VE"},
      {"measurement": "hLiMTs ATP <20 x Cmax", "setting": "PHH spheroids [4]; In vitro Assay, ref Vorrink 2018", "value": "+VE (IC20 < 20 × Cmax.tot cut-off)"},
      {"measurement": "DILI in vitro assay prediction, Vorrink (2018)", "setting": "PHH spheroids [4]; PHH spheroids, ATP, 14 days, IC20 < 20 × Cmax.tot, ref Vorrink et al. 2018", "value": "+VE (IC20 < 20 × Cmax.tot cut-off)"},
      {"measurement": "toxicity in PHH spheroids", "setting": "PHH spheroids [5]", "value": "no toxicity"},
      {"measurement": "Structural based (HCI)", "setting": "HepG2 cells [6]; In vitro Assay, ref O'Brien 2006", "value": "+VE"},
      {"measurement": "DILI in vitro assay prediction, O'Brien (2006)", "setting": "HepG2 cells [6]; Structural based (HCI), HepG2, ref O'Brien et al. 2006", "value": "+VE (lowest HCI endpoint IC50 (or in the absence of dose–response < 100 µM) < 30 × total human plasma exposure levels (Cmax.tot))"},
      {"measurement": "Cmax", "setting": "[7]", "value": 820, "unit": "nM"},
      {"measurement": "AC50", "setting": "hLiMTs; Homo sapiens, read-out: ATP endpoint AC50", "value": 6.3, "unit": "µM"},
      {"measurement": "minimal effective concentration", "setting": "hLiMTs; Homo sapiens, read-out: ATP endpoint MEC", "value": 0.932, "unit": "µM"},
      {"measurement": "minimal effective concentration", "setting": "hLiMTs; Homo sapiens, read-out: HCS endpoint MEC", "value": 6.54, "unit": "µM"},
      {"measurement": "DILI prediction hLiMTs (HCS-MEC)", "setting": "hLiMTs; [14]", "value": "+VE (MEC < 25 × Cmax.tot cut-off)"},
      {"measurement": "hLiMTs <25x Avg Cmax ATP", "setting": "hLiMTs; hLiMTs, ATP endpoint, cut-off <25x Avg Cmax", "value": "+ve"},
      {"measurement": "hLiMTs <100x Avg Cmaxu ATP", "setting": "hLiMTs; hLiMTs, ATP endpoint, cut-off <100x Avg Cmaxu", "value": "+ve (<100x Avg Cmaxu)"},
      {"measurement": "hLiMTs <25x Avg Cmax HCS", "setting": "hLiMTs; hLiMTs, HCS endpoints, cut-off <25x Avg Cmax", "value": "+ve"},
      {"measurement": "hLiMTs <100x Avg Cmaxu HCS", "setting": "hLiMTs; hLiMTs, HCS endpoints, cut-off <100x Avg Cmaxu", "value": "+ve (<100x Avg Cmaxu)"},
      {"measurement": "hLiMTs <25x Avg Cmax All", "setting": "hLiMTs; hLiMTs, all endpoints (ATP and HCS), cut-off <25x Avg Cmax", "value": "+ve"},
      {"measurement": "hLiMTs Cmax max All", "setting": "hLiMTs; hLiMTs, all endpoints, Cmax max used", "value": "+ve"},
      {"measurement": "hLiMTs Cmax min All", "setting": "hLiMTs; hLiMTs, all endpoints, Cmax min used", "value": "+ve"},
      {"measurement": "hLiMTs <10 uM All", "setting": "hLiMTs; hLiMTs, all endpoints, cut-off <10 uM", "value": "+ve (<10 uM)"},
      {"measurement": "hLiMTs <100x Avg Cmaxu All", "setting": "hLiMTs; hLiMTs, all endpoints, cut-off <100x Avg Cmaxu", "value": "+ve (<100x Avg Cmaxu)"},
      {"measurement": "Human plasma Cmax,u", "setting": "[8]", "value": 295, "unit": "nM"},
      {"measurement": "fu", "setting": "[9]", "value": 0.360},
      {"measurement": "Structural based (HCI)", "setting": "HepG2 cells [10]; In vitro Assay, ref Tolosa 2012", "value": "+VE"},
      {"measurement": "DILI in vitro assay prediction, Tolosa (2012)", "setting": "HepG2 cells [10]; Structural based (HCI), HepG2, ref Tolosa et al. 2012", "value": "+VE"},
      {"measurement": "THLE-Null", "setting": "[11]", "value": "-VE"},
      {"measurement": "THLE-Null/3A4", "setting": "[11]", "value": "-VE"},
      {"measurement": "HepaRG <25x Avg Cmax ATP", "setting": "HepaRG spheroids; HepaRG, ATP endpoint, cut-off <25x Avg Cmax", "value": "+ve"},
      {"measurement": "HepaRG <100x Avg Cmaxu ATP", "setting": "HepaRG spheroids; HepaRG, ATP endpoint, cut-off <100x Avg Cmaxu", "value": "+ve (<100x Avg Cmaxu)"},
      {"measurement": "HepaRG <25x Avg Cmax HCS", "setting": "HepaRG spheroids; HepaRG, HCS endpoints, cut-off <25x Avg Cmax", "value": "+ve"},
      {"measurement": "HepaRG <100x Avg Cmaxu HCS", "setting": "HepaRG spheroids; HepaRG, HCS endpoints, cut-off <100x Avg Cmaxu", "value": "+ve (<100x Avg Cmaxu)"},
      {"measurement": "HepaRG <25x Avg Cmax All", "setting": "HepaRG spheroids; HepaRG, all endpoints (ATP and HCS), cut-off <25x Avg Cmax", "value": "+ve"},
      {"measurement": "HepaRG Cmax max All", "setting": "HepaRG spheroids; HepaRG, all endpoints, Cmax max used", "value": "+ve"},
      {"measurement": "HepaRG Cmax min All", "setting": "HepaRG spheroids; HepaRG, all endpoints, Cmax min used", "value": "+ve"},
      {"measurement": "HepaRG <10 uM All", "setting": "HepaRG spheroids; HepaRG, all endpoints, cut-off <10 uM", "value": "+ve (<10 uM)"},
      {"measurement": "HepaRG <100x Avg Cmaxu All", "setting": "HepaRG spheroids; HepaRG, all endpoints, cut-off <100x Avg Cmaxu", "value": "+ve (<100x Avg Cmaxu)"},
      {"measurement": "AC50", "setting": "HepaRG spheroids; HepaRG, read-out: ATP endpoint AC50", "value": 9.16, "unit": "µM"},
      {"measurement": "minimal effective concentration", "setting": "HepaRG spheroids; HepaRG, read-out: ATP endpoint MEC", "value": 1.28, "unit": "µM"},
      {"measurement": "AC50", "setting": "HepaRG spheroids; HepaRG, read-out: HCS endpoint AC50", "value": 115, "unit": "µM"},
      {"measurement": "minimal effective concentration", "setting": "HepaRG spheroids; HepaRG, read-out: HCS endpoint MEC", "value": 5.78, "unit": "µM"},
      {"measurement": "DILI prediction HepaRG spheroids (HCS-MEC)", "setting": "HepaRG spheroids; [14]", "value": "+VE (MEC < 25 × Cmax.tot cut-off)"},
      {"measurement": "Inhibition of rBsep cutoff<1& cmax u>.2", "setting": "rBsep", "value": "-VE"},
      {"measurement": "Inhibition of rBsep cutoff<3", "setting": "rBsep", "value": "-VE"},
      {"measurement": "clinical liver finding", "setting": "[12]", "value": "fatal hepatotoxicity"},
      {"measurement": "detection in 3D microtissues", "setting": "PHH liver spheroid", "value": "detected"}
    ]}
  ]
}
